# Measurements published in patent publication US20050197350A1, “Novel quinoline, tetrahydroquinazoline, and pyrimidine derivatives and methods of treatment related to the use thereof” (TAISHO PHARMACEUTICAL CO., LTD., priority 2003, published 2005).
# Test system: MCH receptors
# Experiment: MCH receptor activity class (method not given)
# Details: class by percent of control at 10^-7 M or IC50
row,Structure (SMILES),class
1,CN(C)c1cc(N[C@H]2CC[C@@H](CNCc3cc(Cl)ccc3Cl)CC2)nc2ccccc12 [compound 1473],3 (Class 3 The value of percent of control at 10^−7 M was more than 60% or the value of IC50 was more than 200 nM.)
2,COc1ccc(Cl)cc1CNC[C@H]1CC[C@@H](Nc2cc(N(C)C)c3ccccc3n2)CC1 [compound 1474],3 (Class 3 The value of percent of control at 10^−7 M was more than 60% or the value of IC50 was more than 200 nM.)
3,COc1cc(Cl)ccc1CNC[C@H]1CC[C@@H](Nc2cc(N(C)C)c3ccccc3n2)CC1 [compound 1475],3 (Class 3 The value of percent of control at 10^−7 M was more than 60% or the value of IC50 was more than 200 nM.)
4,Cc1ccc(CNC[C@H]2CC[C@@H](Nc3cc(N(C)C)c4ccccc4n3)CC2)cc1I [compound 1476],3 (Class 3 The value of percent of control at 10^−7 M was more than 60% or the value of IC50 was more than 200 nM.)
5,C[C@@H](CNC[C@H]1CC[C@@H](Nc2cc(N(C)C)c3ccccc3n2)CC1)N(Cc1ccccc1)Cc1ccccc1 [compound 1477],3 (Class 3 The value of percent of control at 10^−7 M was more than 60% or the value of IC50 was more than 200 nM.)
6,CCCc1c(CNC[C@H]2CC[C@@H](Nc3cc(N(C)C)c4ccccc4n3)CC2)cnn1-c1ccccc1 [compound 1478],1 (Class 1: The value of percent of control at 10^−7 M was less than 40% or the value of IC50 was less than 50 nM.)
7,CCCc1c(CNC[C@H]2CC[C@@H](Nc3cc(N(C)C)c4ccccc4n3)CC2)cnn1-c1ccc(Cl)cc1 [compound 1479],1 (Class 1: The value of percent of control at 10^−7 M was less than 40% or the value of IC50 was less than 50 nM.)
8,CN(C)c1cc(N[C@H]2CC[C@@H](CNCCCCc3ccc([N+](=O)[O-])cc3)CC2)nc2ccccc12 [compound 1480],3 (Class 3 The value of percent of control at 10^−7 M was more than 60% or the value of IC50 was more than 200 nM.)
9,CN(C)c1nc(N[C@H]2CC[C@@H](NCCc3ccc(Br)cc3)CC2)nc2c1CCCC2 [compound 1481],3 (Class 3 The value of percent of control at 10^−7 M was more than 60% or the value of IC50 was more than 200 nM.)
10,CN(C)c1nc(N[C@H]2CC[C@@H](NCCc3cccc(Cl)c3)CC2)nc2c1CCCC2 [compound 1482],3 (Class 3 The value of percent of control at 10^−7 M was more than 60% or the value of IC50 was more than 200 nM.)
11,COC(CN[C@H]1CC[C@@H](Nc2nc3c(c(N(C)C)n2)CCCC3)CC1)c1ccccc1 (stereo partly shown) [compound 1483],3 (Class 3 The value of percent of control at 10^−7 M was more than 60% or the value of IC50 was more than 200 nM.)
12,COC(CNC1CCC(Nc2nc3c(c(N(C)C)n2)CCCC3)CC1)c1ccccc1 (stereo not shown) [compound 1484],3 (Class 3 The value of percent of control at 10^−7 M was more than 60% or the value of IC50 was more than 200 nM.)
13,Cc1c(C)c(C)c(CNC2CCC(Nc3nc4c(c(N(C)C)n3)CCCC4)CC2)c(C)c1C (stereo not shown) [compound 1485],2 (Class 2: The value of percent of control at 10^−7 M was from 40% to 60% or the value of IC′50 was from 50 nM to 200 nM.)
14,CCOc1cccc(CN[C@H]2CC[C@@H](Nc3nc4c(c(N(C)C)n3)CCCC4)CC2)c1 [compound 1486],3 (Class 3 The value of percent of control at 10^−7 M was more than 60% or the value of IC50 was more than 200 nM.)
15,CN(C)c1nc(N[C@H]2CC[C@@H](NC[C@@H](COCc3ccccc3)OCc3ccccc3)CC2)nc2c1CCCC2 [compound 1487],3 (Class 3 The value of percent of control at 10^−7 M was more than 60% or the value of IC50 was more than 200 nM.)
16,COc1cc2ccccc2cc1CN[C@H]1CC[C@@H](Nc2nc3c(c(N(C)C)n2)CCCC3)CC1 [compound 1488],3 (Class 3 The value of percent of control at 10^−7 M was more than 60% or the value of IC50 was more than 200 nM.)

row,Structure (SMILES),class
1,Cc1cccc(N(CCC#N)CCN[C@H]2CC[C@@H](Nc3nc4c(c(N(C)C)n3)CCCC4)CC2)c1 [compound 1489],2 (Class 2: The value of percent of control at 10^−7 M was from 40% to 60% or the value of IC′50 was from 50 nM to 200 nM.)
2,CN(C)c1nc(N[C@H]2CC[C@@H](NCCN(CCC#N)c3ccccc3)CC2)nc2c1CCCC2 [compound 1490],1 (Class 1: The value of percent of control at 10^−7 M was less than 40% or the value of IC50 was less than 50 nM.)
3,Cc1ccc(S(=O)(=O)N[C@H](CN[C@H]2CC[C@@H](Nc3nc4c(c(N(C)C)n3)CCCC4)CC2)Cc2ccccc2)cc1 [compound 1491],1 (Class 1: The value of percent of control at 10^−7 M was less than 40% or the value of IC50 was less than 50 nM.)
4,COc1cc(CCN[C@H]2CC[C@@H](Nc3nc4c(c(N(C)C)n3)CCCC4)CC2)cc(OC)c1 [compound 1493],2 (Class 2: The value of percent of control at 10^−7 M was from 40% to 60% or the value of IC′50 was from 50 nM to 200 nM.)
5,CN(C)c1nc(N[C@H]2CC[C@@H](NCCc3c(-c4ccccc4)[nH]c4ccccc34)CC2)nc2c1CCCC2 [compound 1494],3 (Class 3 The value of percent of control at 10^−7 M was more than 60% or the value of IC50 was more than 200 nM.)
6,CN(C)c1nc(N[C@H]2CC[C@@H](NCC(c3ccc(Cl)cc3)c3ccc(Cl)cc3)CC2)nc2c1CCCC2 [compound 1495],3 (Class 3 The value of percent of control at 10^−7 M was more than 60% or the value of IC50 was more than 200 nM.)
7,CN(C)c1nc(N[C@H]2CC[C@@H](NCC3CN(C(c4ccccc4)c4ccccc4)C3)CC2)nc2c1CCCC2 [compound 1497],1 (Class 1: The value of percent of control at 10^−7 M was less than 40% or the value of IC50 was less than 50 nM.)
8,CN(C)c1nc(N[C@H]2CC[C@@H](CNCCc3ccc(Br)cc3)CC2)nc2c1CCCC2 [compound 1498],3 (Class 3 The value of percent of control at 10^−7 M was more than 60% or the value of IC50 was more than 200 nM.)
9,COc1ccc(CCCCNC[C@H]2CC[C@@H](Nc3nc4c(c(N(C)C)n3)CCCC4)CC2)cc1 [compound 1499],3 (Class 3 The value of percent of control at 10^−7 M was more than 60% or the value of IC50 was more than 200 nM.)
10,CN(C)c1nc(N[C@H]2CC[C@@H](CNCCCCCCc3ccccc3)CC2)nc2c1CCCC2 [compound 1500],3 (Class 3 The value of percent of control at 10^−7 M was more than 60% or the value of IC50 was more than 200 nM.)
11,Cc1cc(C)c(CCNC[C@H]2CC[C@@H](Nc3nc4c(c(N(C)C)n3)CCCC4)CC2)c(C)c1 [compound 1501],3 (Class 3 The value of percent of control at 10^−7 M was more than 60% or the value of IC50 was more than 200 nM.)
12,CN(C)c1nc(N[C@H]2CC[C@@H](CNCCCCCCCCc3ccccc3)CC2)nc2c1CCCC2 [compound 1502],3 (Class 3 The value of percent of control at 10^−7 M was more than 60% or the value of IC50 was more than 200 nM.)
13,CN(C)c1nc(N[C@H]2CC[C@@H](CNCCc3ccc(C(C)(C)C)cc3)CC2)nc2c1CCCC2 [compound 1503],3 (Class 3 The value of percent of control at 10^−7 M was more than 60% or the value of IC50 was more than 200 nM.)
14,COc1ccccc1CCNC[C@H]1CC[C@@H](Nc2nc3c(c(N(C)C)n2)CCCC3)CC1 [compound 1504],3 (Class 3 The value of percent of control at 10^−7 M was more than 60% or the value of IC50 was more than 200 nM.)
15,CN(C)c1nc(N[C@H]2CC[C@@H](CNCCCOc3ccccc3)CC2)nc2c1CCCC2 [compound 1505],3 (Class 3 The value of percent of control at 10^−7 M was more than 60% or the value of IC50 was more than 200 nM.)
